Measured values from patent US12440537B1, “Compositions and methods for treating skin diseases, disorders, or conditions” (Washington University, priority 2020, dated 2025).
Ends that are not written are not given here.

Tests used:
vitamin D receptor [1] = target: T1, vitamin D receptor (Mus musculus, UniProt P48281); assay: Nuclear localization of vitamin D receptor in MC903-treated keratinocytes; type: cell-based; parameters: endogenous in cells; host or cells: Ivl-/- keratinocytes; conditions: MC903 treated lvl-/- keratinocytes
T1 sequence (P48281 1-422): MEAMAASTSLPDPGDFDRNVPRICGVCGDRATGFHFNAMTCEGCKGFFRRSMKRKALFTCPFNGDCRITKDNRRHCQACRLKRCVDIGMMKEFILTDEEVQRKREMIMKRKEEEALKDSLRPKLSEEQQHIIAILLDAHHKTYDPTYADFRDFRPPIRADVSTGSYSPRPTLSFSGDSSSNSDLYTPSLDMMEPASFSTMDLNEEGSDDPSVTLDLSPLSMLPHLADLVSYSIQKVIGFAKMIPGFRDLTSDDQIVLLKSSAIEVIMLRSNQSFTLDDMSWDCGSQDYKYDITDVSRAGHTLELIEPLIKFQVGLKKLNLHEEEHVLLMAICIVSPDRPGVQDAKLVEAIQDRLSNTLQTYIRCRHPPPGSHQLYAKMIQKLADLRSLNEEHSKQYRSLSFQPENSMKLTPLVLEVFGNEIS

vitamin D receptor [2] = target: T1, vitamin D receptor; assay: MC903 vitamin D receptor-mediated skin inflammation in WT and Involucrin (lvl) -/- mice; type: in vivo; parameters: from tissue; host or cells: skin of WT and Ivl-/- mice (in vivo)
Experimental: Here, vitamin D receptor-mediated skin inflammation was induced in Involucrin (lvl) -/- mice and vitamin D receptor function in the epidermis was evaluated (see e.g., FIG. 14). It was shown that vitamin D receptor-induced inflammation is reduced in lvl^-/- skin (see e.g., FIG. 15). […] Basophils are a major source of IL-4 and IL-6 expression that drives skin inflammation (see e.g., FIG. 21).

keratinocytes [3] = assay: IVL peptide protection against keratinocyte cell (detergent) lysis; type: cell-based; conditions: keratinocytes treated with IVL late repeat peptide
keratinocytes [4] = assay: Keratinocyte barrier function after IVL peptide treatment; type: cell-based; conditions: keratinocytes treated with IVL peptide

CD4+ T cells (vitamin D receptor [2]; MC903-treated lvl-/- skin)	vitamin D receptor induced inflammation (vitamin D receptor [2]; MC903 treatment, lvl-/- skin compared to WT)	Compound	nuclear localization of vitamin D receptor (vitamin D receptor [1])	cell type populations (scRNA-seq) (vitamin D receptor [2]; MC903-treated lvl-/- skin)	protection against keratinocyte cell lysis (keratinocytes [3])	protection against keratinocyte cell lysis (keratinocytes [3]; listed as IVL late repeat peptide)	protection against keratinocyte cell lysis (keratinocytes [3]; listed as “late” repeat IVL peptide)	keratinocyte barrier function (keratinocytes [4])
significantly decreased	significantly reduced as early as day 6	C=C1/C(=C\C=C2/CCC[C@]3(C)[C@@H]([C@H](C)/C=C/[C@@H](O)C4CC4)CC[C@@H]23)C[C@@H](O)C[C@@H]1O [MC903]	loss of nuclear localization of vitamin D receptor	Decreased basophils, macrophages, CD4^+ T cells, and basal II keratinocytes, and increased suprabasal keratinocytes				
		ELPEQQEGQL (ELPEQQEGQL-NH2) [IVL peptide]			protects against keratinocyte cell lysis	protects the keratinocyte from detergent lysis	resistant to detergent lysis	improves keratinocyte barrier function
